One experiment deals with FGFR1 (h) (Homo sapiens, UniProt P11362). As to the kind of experiment: FGFR1 (enzymatic assay), TR-FRET. As to conditions: average values if tested multiple times, read-out: FGFR 1 pIC50 (converted). Type of experiment: biochemical. In general terms: In TR-FRET formats the signal depends on donor and acceptor labels being close together.
The target of the next experiment is FGFR2 (h) (Homo sapiens, UniProt P21802). As to the kind of experiment: FGFR2 (enzymatic assay), TR-FRET. It counts as biochemical. The conditions noted are these: enzymatic assay; average values if tested multiple times; read-out: FGFR 2 pIC50 (converted). The essentials: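 At low ATP (0.4 μM), enzyme activity of human FGFR2 (150 ng/ml) toward biotinylated Flt3 substrate (500 nM) was followed with test compound present. Reactions ran in 50 mM HEPES pH 7.5, 6 mM MnCl2, 1 mM DTT, 0.1 mM Na3VO4, 0.01% Triton-X-100, 1% DMSO.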
FGFR2 (h), sequence (P21802 22-821): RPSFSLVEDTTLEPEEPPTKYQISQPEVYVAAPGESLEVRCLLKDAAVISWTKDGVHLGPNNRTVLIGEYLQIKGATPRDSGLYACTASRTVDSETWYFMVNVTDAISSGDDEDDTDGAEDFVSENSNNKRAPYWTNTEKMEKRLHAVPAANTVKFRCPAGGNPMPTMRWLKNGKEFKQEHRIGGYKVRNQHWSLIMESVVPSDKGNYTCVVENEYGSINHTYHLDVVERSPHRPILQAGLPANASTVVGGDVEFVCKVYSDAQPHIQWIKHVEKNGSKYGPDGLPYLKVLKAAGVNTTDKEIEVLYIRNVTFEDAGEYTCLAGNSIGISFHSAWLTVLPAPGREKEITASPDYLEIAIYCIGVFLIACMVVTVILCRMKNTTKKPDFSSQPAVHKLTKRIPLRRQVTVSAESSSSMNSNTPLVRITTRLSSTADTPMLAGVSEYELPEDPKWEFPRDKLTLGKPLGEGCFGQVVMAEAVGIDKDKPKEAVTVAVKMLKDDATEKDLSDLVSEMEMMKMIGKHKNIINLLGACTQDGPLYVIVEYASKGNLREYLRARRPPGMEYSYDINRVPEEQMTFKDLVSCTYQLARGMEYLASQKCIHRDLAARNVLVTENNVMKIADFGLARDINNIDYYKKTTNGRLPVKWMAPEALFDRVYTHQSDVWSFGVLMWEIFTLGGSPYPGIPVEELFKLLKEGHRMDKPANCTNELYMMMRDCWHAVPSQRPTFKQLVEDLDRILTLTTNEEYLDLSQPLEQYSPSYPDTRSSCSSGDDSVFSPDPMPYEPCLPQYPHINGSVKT

Another experiment has as its target KDR (h) (Homo sapiens, UniProt P35968). As to the kind of experiment: KDR (VEGFR2) (enzymatic assay), TR-FRET. It counts as biochemical. The conditions noted are these: average values if tested multiple times, read-out: VEGFR 2 (KDR) pIC50 (converted). The procedure, abridged: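 3 μM ATP, 500 nM Btn-Flt3 substrate, 150 ng/ml kinase; HEPES pH 7.5 with MnCl2, DTT, vanadate, Triton; 1% DMSO. 120 min RT. Stop: EDTA + Eu-anti-P-Tyr + SA-XL-665, 60 min RT. Readout TR-FRET ex340/em620, 655 nm, RFU.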

Experiment [1] addresses T1, Ba/F3-FGFR1-transfected cells (Homo sapiens, UniProt P11362).
T1 construct: BAF3-FGFR1 (MIN IL3) pIC50; other: minus IL3
As to the kind of experiment: Ba/F3-FGFR1 (minus IL3) cellular proliferation assay, Alamar Blue. It counts as cell-based. The procedure, abridged:
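Ba/F3-FGFR1 cells, 20000/well, RPMI-1640 + 10% FBS + 2 mM L-Gln; compound in DMSO; 24 h, 37 °C, 5% CO2; Alamar Blue 4 h; RFU ex 540/em 590.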
A general note: Alamar Blue is a resazurin reagent that responds to reducing activity.

The test system of experiment [2] is Ba/F3-FGFR3-transfected cells. As to the kind of experiment: Ba/F3-FGFR3 (plus IL3) cellular proliferation assay, counterscreen with 10 ng/ml murine IL3. It counts as cell-based. The conditions noted are these: plus IL3 (10 ng/ml murine IL3, counterscreen); read-out: BAF3-FGFR3 (PLUS IL3) pIC50 (converted). The procedure, abridged:
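FGFR3-Ba/F3, 20000 cells/well, RPMI-1640 + 10% FBS, no phenol red; cpd in DMSO; 24 h, 37° C/5% CO2. Alamar Blue 4 h, RFU ex540/em590. Counterscreen: + murine IL3 10 ng/ml.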
(In general: The purpose of a counterscreen is to sort out artefacts and off-target activity.)

Experiment [3] deals with Ba/F3-KDR-transfected cells. As to the kind of experiment: Ba/F3-KDR (plus IL3) cellular proliferation assay, counterscreen with 10 ng/ml murine IL3. It counts as cell-based. The conditions noted are these: plus IL3 (10 ng/ml murine IL3, counterscreen); read-out: BAF3-KDR (PLUS IL3) pIC50 (converted). The procedure, abridged: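 Read-out: resazurin-based Alamar Blue fluorescence (ex. 540, em. 590 nm) after 4 h. Before that, cells were incubated with compound for 24 h at 37° C. The counterscreen ran identically but with IL3 supplemented.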

Experiment [4] deals with Ba/F3-FGFR4-transfected cells (Homo sapiens, UniProt P22455). As to the kind of experiment: Ba/F3-FGFR4 cellular proliferation assay, Alamar Blue. It counts as cell-based. The essentials:
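Fluorescence read-out (ex. 540 nm, em. 590 nm) of resazurin-based Alamar Blue after 4 h, following 24 h compound exposure of Ba/F3-FGFR4-transfected cells (20000/well) at 37° C, 5% CO2.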

Counter-ions that a name gives are not always drawn. Some results are limits rather than exact numbers.

Ba/F3-FGFR4-transfected cells, sequence (P22455 whole entry, change not shown): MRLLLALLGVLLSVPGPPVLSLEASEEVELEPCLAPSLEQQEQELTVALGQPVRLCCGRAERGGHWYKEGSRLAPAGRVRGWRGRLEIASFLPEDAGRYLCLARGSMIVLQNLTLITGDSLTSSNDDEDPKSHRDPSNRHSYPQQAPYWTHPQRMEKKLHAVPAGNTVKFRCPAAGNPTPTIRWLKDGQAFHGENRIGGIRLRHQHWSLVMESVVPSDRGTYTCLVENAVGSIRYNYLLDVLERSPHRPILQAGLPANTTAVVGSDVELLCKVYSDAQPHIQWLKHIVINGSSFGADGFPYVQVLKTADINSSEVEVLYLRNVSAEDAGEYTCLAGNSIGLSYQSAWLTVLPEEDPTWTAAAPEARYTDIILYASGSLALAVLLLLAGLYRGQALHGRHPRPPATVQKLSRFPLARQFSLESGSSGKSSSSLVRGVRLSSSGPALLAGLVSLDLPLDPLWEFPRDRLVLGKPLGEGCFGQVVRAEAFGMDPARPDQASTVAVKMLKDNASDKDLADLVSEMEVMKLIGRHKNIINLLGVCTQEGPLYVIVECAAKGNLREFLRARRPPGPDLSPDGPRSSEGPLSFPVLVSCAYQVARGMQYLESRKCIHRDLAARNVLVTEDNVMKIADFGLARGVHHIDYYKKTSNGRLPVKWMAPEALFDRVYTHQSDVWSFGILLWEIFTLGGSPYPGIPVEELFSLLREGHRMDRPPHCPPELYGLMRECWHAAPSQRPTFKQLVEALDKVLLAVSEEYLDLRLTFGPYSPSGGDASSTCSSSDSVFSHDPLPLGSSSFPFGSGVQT
KDR (h), sequence (P35968 20-1356): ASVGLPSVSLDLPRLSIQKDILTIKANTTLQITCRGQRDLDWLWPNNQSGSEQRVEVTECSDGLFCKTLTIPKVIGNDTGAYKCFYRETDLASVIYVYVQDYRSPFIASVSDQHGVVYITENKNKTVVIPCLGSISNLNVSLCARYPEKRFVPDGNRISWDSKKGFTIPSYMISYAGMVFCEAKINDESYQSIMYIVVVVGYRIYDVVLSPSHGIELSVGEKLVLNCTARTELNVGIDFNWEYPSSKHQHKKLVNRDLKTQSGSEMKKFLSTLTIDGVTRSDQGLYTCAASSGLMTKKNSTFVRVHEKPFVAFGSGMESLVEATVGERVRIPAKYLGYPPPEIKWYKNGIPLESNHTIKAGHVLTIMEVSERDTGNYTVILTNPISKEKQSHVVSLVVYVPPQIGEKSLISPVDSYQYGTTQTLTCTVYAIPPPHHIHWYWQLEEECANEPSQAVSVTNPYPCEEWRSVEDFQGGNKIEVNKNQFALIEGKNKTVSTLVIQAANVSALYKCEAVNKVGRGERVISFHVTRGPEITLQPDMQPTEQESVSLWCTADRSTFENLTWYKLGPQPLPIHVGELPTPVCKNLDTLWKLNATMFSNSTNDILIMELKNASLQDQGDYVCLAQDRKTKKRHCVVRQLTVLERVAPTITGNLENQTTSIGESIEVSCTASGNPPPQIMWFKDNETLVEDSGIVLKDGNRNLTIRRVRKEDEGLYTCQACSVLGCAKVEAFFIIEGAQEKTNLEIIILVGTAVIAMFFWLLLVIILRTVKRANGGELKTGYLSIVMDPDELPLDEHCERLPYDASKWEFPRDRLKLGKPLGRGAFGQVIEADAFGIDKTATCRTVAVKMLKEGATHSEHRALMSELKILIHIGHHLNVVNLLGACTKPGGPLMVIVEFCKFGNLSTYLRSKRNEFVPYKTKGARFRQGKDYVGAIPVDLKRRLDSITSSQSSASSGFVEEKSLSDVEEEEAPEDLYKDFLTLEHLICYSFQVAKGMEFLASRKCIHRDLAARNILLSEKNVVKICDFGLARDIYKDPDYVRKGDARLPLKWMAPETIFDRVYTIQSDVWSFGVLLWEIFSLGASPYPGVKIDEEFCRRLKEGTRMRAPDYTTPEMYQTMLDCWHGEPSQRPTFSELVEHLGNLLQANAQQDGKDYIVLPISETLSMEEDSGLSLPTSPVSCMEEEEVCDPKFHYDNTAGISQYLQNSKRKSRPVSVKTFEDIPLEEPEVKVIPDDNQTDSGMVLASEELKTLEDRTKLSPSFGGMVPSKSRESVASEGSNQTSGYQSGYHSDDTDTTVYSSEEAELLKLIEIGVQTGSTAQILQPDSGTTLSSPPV
T1 sequence (P11362 whole entry, change not shown): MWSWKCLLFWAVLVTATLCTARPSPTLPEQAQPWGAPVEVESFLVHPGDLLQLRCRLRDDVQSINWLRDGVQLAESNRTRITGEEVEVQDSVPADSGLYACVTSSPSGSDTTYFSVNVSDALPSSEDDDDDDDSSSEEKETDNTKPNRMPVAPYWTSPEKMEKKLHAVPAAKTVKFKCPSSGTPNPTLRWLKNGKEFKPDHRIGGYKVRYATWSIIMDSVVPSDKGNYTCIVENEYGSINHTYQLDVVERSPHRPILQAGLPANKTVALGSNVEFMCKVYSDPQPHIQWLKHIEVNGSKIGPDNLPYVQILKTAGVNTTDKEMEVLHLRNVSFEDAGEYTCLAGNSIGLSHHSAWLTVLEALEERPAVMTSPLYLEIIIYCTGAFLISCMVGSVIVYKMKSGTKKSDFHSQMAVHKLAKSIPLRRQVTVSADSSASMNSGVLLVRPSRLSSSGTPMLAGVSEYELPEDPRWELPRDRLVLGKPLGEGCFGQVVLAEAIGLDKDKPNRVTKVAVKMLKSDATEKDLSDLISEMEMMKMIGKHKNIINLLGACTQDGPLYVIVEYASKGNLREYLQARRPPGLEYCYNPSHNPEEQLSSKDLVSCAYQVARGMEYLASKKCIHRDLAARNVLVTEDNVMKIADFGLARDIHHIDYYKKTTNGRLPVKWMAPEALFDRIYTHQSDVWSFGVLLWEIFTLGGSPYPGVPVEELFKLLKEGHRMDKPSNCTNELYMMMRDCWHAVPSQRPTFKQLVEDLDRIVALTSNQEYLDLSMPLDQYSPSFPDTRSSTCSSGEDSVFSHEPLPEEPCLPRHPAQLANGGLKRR
FGFR1 (h), sequence (P11362 22-822): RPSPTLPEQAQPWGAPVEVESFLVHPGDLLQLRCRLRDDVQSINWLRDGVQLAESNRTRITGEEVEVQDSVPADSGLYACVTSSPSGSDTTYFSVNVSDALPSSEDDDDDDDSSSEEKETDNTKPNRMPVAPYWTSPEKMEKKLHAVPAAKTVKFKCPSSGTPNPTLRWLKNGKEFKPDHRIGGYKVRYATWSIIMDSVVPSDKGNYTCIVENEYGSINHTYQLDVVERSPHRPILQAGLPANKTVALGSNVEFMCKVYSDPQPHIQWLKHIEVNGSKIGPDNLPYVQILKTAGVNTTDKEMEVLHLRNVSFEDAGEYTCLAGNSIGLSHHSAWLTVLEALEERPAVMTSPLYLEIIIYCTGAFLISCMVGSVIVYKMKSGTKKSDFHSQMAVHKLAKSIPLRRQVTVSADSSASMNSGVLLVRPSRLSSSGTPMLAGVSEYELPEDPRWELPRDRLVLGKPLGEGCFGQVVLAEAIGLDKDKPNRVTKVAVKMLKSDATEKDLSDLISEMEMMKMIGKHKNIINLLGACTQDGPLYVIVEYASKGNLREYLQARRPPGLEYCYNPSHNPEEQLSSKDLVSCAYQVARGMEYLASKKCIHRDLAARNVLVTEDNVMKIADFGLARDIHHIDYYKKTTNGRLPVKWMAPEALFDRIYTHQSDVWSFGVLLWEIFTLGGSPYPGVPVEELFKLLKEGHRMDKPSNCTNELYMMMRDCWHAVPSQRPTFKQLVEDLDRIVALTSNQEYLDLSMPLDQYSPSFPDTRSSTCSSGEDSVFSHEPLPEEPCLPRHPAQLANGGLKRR

Take `COc1cc(OC)cc(N(Cc2ncc[nH]2)c2ccc3ncc(-c4cnn(C)c4)nc3n2)c1` (racemic) [24-DL-tartrate salt]: the IC50 at FGFR1 (h) is 0.355 nM; at FGFR2 (h) it was 1.32 nM; at KDR (h), 11.7 nM; in experiment [2] it was over 10 µM; in experiment [3], over 10 µM. In experiment [1], the “BAF3-FGFR1 (MIN IL3) pIC50” value was 8.47. For the same compound, the “BAF3-FGFR4 pIC50” value in experiment [4] turned out to be 7.62.

Take `COc1cc(OC)c(F)c(N(CCCO)c2ccc3ncc(-c4cnn(C)c4)nc3n2)c1F` (single isomer, unassigned) [Compound 16]: the IC50 at FGFR1 (h) is 10 nM; on FGFR2 (h) it was 15.8 nM; on KDR (h), 100 nM; in experiment [2], over 10 µM; in experiment [3], over 10 µM. Further, in experiment [1], the “BAF3-FGFR1 (MIN IL3) pIC50” value is recorded as 8.0. Moreover, the “BAF3-FGFR4 pIC50” value in experiment [4] was determined as 7.7.

For `COc1cc(OC)cc(N(CC(O)C(F)(F)F)c2ccc3ncc(-c4cnn(C)c4)nc3n2)c1` (single isomer, unassigned) [Compound 33], the IC50 was 0.871 nM on FGFR1 (h); 2.04 nM at FGFR2 (h); 75.9 nM at KDR (h); over 10 µM in experiment [2]; over 10 µM in experiment [3]. Besides, the “BAF3-FGFR1 (MIN IL3) pIC50” value in experiment [1] turned out to be 7.60. Besides, the “BAF3-FGFR4 pIC50” value in experiment [4] was about 7.03.

For the compound `COCC(O)CN(c1ccc2ncc(-c3cnn(C)c3)nc2n1)c1cc(OC)cc(OC)c1F` (single isomer, unassigned) [Compound 58], the IC50 on FGFR1 (h) is 1.35 nM; on FGFR2 (h), 1.95 nM; on KDR (h) it was 34.7 nM; in experiment [2] it was over 10 µM; in experiment [3], over 10 µM. The “BAF3-FGFR1 (MIN IL3) pIC50” value in experiment [1] is on record as 7.51. The “BAF3-FGFR4 pIC50” value in experiment [4] is on record as 7.09.

In the case of `COc1cc(OC)c(F)c(N(CC(O)COC(C)C)c2ccc3ncc(-c4cnn(C)c4)nc3n2)c1` (single isomer, unassigned) [Compound 75], the IC50 on FGFR1 (h) is 2.14 nM; on FGFR2 (h) it was 2.63 nM; on KDR (h), 23.4 nM; in experiment [2], over 10 µM; in experiment [3] it was over 10 µM. Besides, the “BAF3-FGFR1 (MIN IL3) pIC50” value in experiment [1] is recorded as 7.76. Also, the “BAF3-FGFR4 pIC50” value in experiment [4] was 7.33.

For the compound `COc1cc(OC)c(F)c(N(c2ccc3ncc(-c4cnn(C)c4)nc3n2)C(CO)COC(C)C)c1` (single isomer, unassigned) [Compound 76], the IC50 is 302 nM on FGFR1 (h); 468 nM at FGFR2 (h); over 1000 nM on KDR (h); over 10 µM in experiment [2]; over 10 µM in experiment [3]. For the same compound, the “BAF3-FGFR1 (MIN IL3) pIC50” value in experiment [1] is 5.55. For the same compound, the “BAF3-FGFR4 pIC50” value in experiment [4] is reported as 5.20.

Take `COc1cc(/N=c2\ccc3ncc(-c4cnn(C)c4)nc3n2CC(O)COC(C)C)c(F)c(OC)c1` (single isomer, unassigned) [Compound 77]: the IC50 at FGFR1 (h) is 2.69 nM; on FGFR2 (h) it was 3.16 nM; at KDR (h) it was 28.8 nM; in experiment [2] it was over 10 µM; in experiment [3], over 10 µM. In addition, the “BAF3-FGFR1 (MIN IL3) pIC50” value in experiment [1] was determined as 7.37. In addition, in experiment [4], the “BAF3-FGFR4 pIC50” value worked out at 6.46.

For the compound `COc1cc(OC)c(Cl)c(/N=c2\ccc3ncc(-c4cnn(C)c4)nc3n2CC2CCC(=O)N2)c1Cl` (single isomer, unassigned) [Compound 87], the IC50 on FGFR1 (h) is 4.07 nM; on FGFR2 (h), 6.03 nM; at KDR (h) it was 117 nM; in experiment [2], over 10 µM; in experiment [3] it was over 10 µM. Also, the “BAF3-FGFR1 (MIN IL3) pIC50” value in experiment [1] is 6.84. In addition, the “BAF3-FGFR4 pIC50” value in experiment [4] turned out to be 5.89.

As to `COc1cc(OC)c(Cl)c(N(CC2CCC(=O)N2)c2ccc3ncc(-c4cnn(C)c4)nc3n2)c1Cl` (single isomer, unassigned) [Compound 88], the IC50 at FGFR1 (h) was 12.9 nM; on FGFR2 (h), 9.12 nM; on KDR (h), 102 nM; in experiment [2], over 10 µM; in experiment [3], over 10 µM. For the same compound, the “BAF3-FGFR1 (MIN IL3) pIC50” value in experiment [1] amounted to 6.68. Besides, the “BAF3-FGFR4 pIC50” value in experiment [4] is given as 5.65.

For the origin of these results see patent publication US9309242B2, “Substituted pyrido[2,3-b]pyrazines as FGFR kinase inhibitors” (priority 2011, dated 2016).
